Source: ChEMBL document CHEMBL1201862, “PubChem BioAssay data set” (2004)
Active and inactive are the calls of the source.

What was measured:
CHO = test: cytotoxicity in TLR9-MyD88 CHO cells, dose response, cytotoxicity control for TLR9-MyD88 binding inhibitor project, cell-based, luminescence (AID 588339); assay type: functional, hamster; settings: Cricetulus griseus;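 also: CHO cells stably coexpressing TLR9 and MyD88 fusions from primary screen; compound exposure lasted 48 hours before viability readout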
Beta Lactamase = Beta Lactamase (Pseudomonas aeruginosa, UniProt Q932Y6); test: beta-lactamase reporter inhibitor potency, dose response, artefact control for TLR9-MyD88 binding inhibitor project, BLA reporter cells, FRET fluorescence (AID 588341); assay type: cell-based;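 also: cell based assay in CHO-K1 cells stably expressing beta-lactamase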
[1] = target: T1, Sentrin-specific protease 8 (Homo sapiens, UniProt Q96LD8); test: SENP8 protease inhibitors, SAR follow-up, biochemical, luminescence (AID 504501); assay type: functional
T1 sequence (Q96LD8 whole entry): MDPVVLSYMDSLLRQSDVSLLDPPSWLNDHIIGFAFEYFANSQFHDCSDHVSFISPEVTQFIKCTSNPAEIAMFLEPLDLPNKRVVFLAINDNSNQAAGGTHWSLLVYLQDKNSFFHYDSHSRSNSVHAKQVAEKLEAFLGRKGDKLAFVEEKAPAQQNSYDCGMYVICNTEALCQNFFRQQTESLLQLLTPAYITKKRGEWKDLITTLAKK

Caspase-3 [2] = target: T2, Caspase-3 (Homo sapiens, UniProt P42574); test: caspase-3 inhibitors as off-family protease, SAR follow-up, selectivity assay for SENP protease inhibitor project, biochemical, luminescence, set 2 (AID 588599); assay type: functional
T2 sequence (P42574 whole entry): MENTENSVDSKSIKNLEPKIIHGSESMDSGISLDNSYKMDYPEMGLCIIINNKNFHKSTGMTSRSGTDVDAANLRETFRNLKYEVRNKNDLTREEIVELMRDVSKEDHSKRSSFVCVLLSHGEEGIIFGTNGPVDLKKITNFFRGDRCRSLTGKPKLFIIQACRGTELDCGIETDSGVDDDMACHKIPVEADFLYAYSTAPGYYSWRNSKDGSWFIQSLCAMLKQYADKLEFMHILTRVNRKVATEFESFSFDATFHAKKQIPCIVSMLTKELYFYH

[3] = target: T3, Sentrin-specific protease 7 (Homo sapiens, UniProt Q9BQF6); test: SENP7 protease inhibitors, SAR follow-up, biochemical, luminescence (AID 504497); assay type: functional
T3 sequence (Q9BQF6 whole entry): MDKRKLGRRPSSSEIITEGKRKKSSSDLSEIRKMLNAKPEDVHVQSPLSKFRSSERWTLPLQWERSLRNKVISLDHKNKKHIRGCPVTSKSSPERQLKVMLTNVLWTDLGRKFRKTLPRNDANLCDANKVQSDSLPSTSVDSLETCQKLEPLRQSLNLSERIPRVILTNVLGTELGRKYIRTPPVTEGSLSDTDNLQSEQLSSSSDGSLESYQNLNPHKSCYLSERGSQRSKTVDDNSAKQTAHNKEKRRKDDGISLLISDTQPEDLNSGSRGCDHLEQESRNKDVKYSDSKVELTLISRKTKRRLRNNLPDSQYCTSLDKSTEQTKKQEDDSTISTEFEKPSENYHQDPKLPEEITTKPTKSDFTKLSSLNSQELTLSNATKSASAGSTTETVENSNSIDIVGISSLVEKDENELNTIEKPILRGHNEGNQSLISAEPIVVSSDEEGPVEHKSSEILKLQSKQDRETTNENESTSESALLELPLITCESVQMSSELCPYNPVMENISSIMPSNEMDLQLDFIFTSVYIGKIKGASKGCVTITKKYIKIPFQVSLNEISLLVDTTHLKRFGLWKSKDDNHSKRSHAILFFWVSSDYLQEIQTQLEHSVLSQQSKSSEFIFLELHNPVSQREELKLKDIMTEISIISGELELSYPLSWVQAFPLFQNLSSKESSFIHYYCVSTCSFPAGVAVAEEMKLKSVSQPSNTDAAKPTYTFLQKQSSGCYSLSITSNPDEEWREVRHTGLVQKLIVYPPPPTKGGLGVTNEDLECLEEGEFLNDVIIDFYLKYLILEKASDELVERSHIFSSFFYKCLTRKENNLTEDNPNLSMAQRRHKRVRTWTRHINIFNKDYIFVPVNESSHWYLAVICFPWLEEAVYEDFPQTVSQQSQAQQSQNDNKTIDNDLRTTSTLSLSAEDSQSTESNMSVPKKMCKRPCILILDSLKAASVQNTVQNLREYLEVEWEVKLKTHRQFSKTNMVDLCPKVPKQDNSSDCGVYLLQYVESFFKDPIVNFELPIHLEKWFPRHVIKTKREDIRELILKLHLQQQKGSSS

[4] = target: T3, Sentrin-specific protease 7; test: SENP7 protease inhibitors, SAR follow-up, biochemical, luminescence, set 2 (AID 588600); assay type: functional
[5] = target: T1, Sentrin-specific protease 8; test: SENP8 protease inhibitors, SAR follow-up, biochemical, luminescence, set 2 (AID 588601); assay type: functional
Caspase-3 [6] = target: T2, Caspase-3; test: SAR Analysis of small molecule inhibitors of Sentrin-specific proteases (SENPs) using a Caspase-3 Selectivity assay. [Related pubchem assays (depositor defined):AID2540, AID2599, AID434973, AID489001]; assay type: functional
[7] = target: T4, Sentrin-specific protease 6 (Homo sapiens, UniProt Q9GZR1); test: SENP6 protease inhibitors, SAR follow-up, biochemical, luminescence, set 2 (AID 588598); assay type: functional
T4 sequence (Q9GZR1 whole entry): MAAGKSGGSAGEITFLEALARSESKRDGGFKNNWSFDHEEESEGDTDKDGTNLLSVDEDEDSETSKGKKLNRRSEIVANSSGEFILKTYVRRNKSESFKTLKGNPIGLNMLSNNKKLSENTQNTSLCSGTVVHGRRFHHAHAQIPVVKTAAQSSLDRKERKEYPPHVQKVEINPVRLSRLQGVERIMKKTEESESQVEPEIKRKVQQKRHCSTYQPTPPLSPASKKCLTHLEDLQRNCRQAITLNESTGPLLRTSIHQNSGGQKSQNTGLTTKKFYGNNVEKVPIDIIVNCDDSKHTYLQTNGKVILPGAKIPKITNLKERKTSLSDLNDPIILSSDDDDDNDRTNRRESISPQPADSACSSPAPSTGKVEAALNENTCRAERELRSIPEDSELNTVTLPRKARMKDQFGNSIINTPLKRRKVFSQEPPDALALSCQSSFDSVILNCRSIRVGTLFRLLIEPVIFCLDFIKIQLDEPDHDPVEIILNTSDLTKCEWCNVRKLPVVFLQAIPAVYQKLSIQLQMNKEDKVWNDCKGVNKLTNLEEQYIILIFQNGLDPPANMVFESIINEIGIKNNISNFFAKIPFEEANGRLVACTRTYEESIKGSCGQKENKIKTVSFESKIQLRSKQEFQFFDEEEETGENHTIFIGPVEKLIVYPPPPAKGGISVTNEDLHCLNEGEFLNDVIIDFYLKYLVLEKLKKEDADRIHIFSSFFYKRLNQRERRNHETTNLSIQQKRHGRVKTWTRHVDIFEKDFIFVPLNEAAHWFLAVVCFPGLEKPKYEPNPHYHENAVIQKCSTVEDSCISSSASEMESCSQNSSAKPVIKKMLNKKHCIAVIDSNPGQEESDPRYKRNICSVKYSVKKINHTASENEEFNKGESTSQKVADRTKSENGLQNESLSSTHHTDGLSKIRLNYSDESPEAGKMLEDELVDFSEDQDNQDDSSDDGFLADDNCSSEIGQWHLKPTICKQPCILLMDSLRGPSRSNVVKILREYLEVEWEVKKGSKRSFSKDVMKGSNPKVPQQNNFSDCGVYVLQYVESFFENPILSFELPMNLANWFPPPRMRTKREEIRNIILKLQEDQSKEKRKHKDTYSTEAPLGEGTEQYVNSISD

[8] = target: T4, Sentrin-specific protease 6; test: SAR Analysis of small molecule inhibitors of Sentrin-specific protease 6 (SENP6) using a Luminescent assay. [Related pubchem assays (depositor defined):AID2582, AID2599]; assay type: functional
[9] = Shn3 3'UTR reporter inhibitors, dose response, cell-based, Clone20 osteoblasts, firefly luciferase, cherry-picked (AID 624132); assay type: functional;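 also: firefly luciferase luminescence from reporter carrying the Shn3 3'UTR in osteoblasts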
INS1 = test: beta cell apoptosis inhibitors, cytokine rescue, dose response, luminescence, retest (AID 449756); assay type: functional, cell-based; settings: Rattus norvegicus;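 also: cell death triggered by IL-1 beta plus TNF-alpha plus IFN-gamma mixture; protective hits raise ATP signal compared with cytokine alone wells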
[10] = inhibitors of firefly luciferase expression or activity, dose response, H4 neuroglioma cells, luminescence (AID 1990); assay type: functional, cell-based
[11] = system: Streptococcus sp. 'group A'; test: growth inhibition of control SK(-) GAS strain, dose response, counter-screen for streptokinase expression inhibitor project, luminescence, kanamycin, BacTiterGlo, confirmation (AID 1900); assay type: functional, organism-based
[12] = inhibitors of intracellular T. cruzi replication, confirmation, NIH3T3 host cells, beta-gal luminescence (AID 2044); assay type: functional, cell-based;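 also: intracellular parasites grown in NIH/3T3 mouse fibroblasts as host cells; luminescent beta-galactosidase reporter signal from transgenic T. cruzi replicating inside host cells; inhibitors lower the luminescence signal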
Streptococcus = test: Group A Streptococcus viability loss, dose response, counter-screen for streptokinase expression inhibitor project, luminescence, BacTiterGlo (AID 1915); assay type: functional, organism-based;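 also: potency for reduction of bacterial viability or growth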
[13] = Luminescence Cell-Based Dose Retest to Confirm Inhibitors of Cancer Stem Cells. [Related pubchem assays (depositor defined):AID2717, AID2721]; assay type: functional; settings: Homo sapiens
[14] = cytotoxicity toward NIH3T3 fibroblasts, dose response, counter-screen, cell-based, ATP luminescence, mouse fibroblasts (AID 2010); assay type: functional;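 also: cells exposed to compound for about 90 hours before reading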
[15] = target: Latent membrane protein 1 (Human herpesvirus 4 (strain B95-8), UniProt P03230); test: TES1-eGFP NF-kB reporter inhibition versus Tet-On dsRED, dose response, selectivity assay for LMP1 NF-kB inhibitor project, imaging, HEK293T, dual-color eGFP/dsRED, cherry-picks (AID 588398); assay type: functional, cell-based
[16] = control 3'UTR Renilla luciferase suppression, dose response, counter-screen for Shn3 inhibitor project, cell-based, Clone20-Shn3RL, cherry-picked (AID 624133); assay type: functional
[17] = microbe, parasite or virus in culture; assay type: functional; settings: Mycobacterium tuberculosis
HEK293 = test: inhibitors of LMP1-driven NF-kB reporter, dose response, cell-based, HEK293, luciferase, cherry-pick (AID 588343); assay type: functional; settings: Homo sapiens
[18] = inhibitors of SNCA 5'UTR-driven reporter translation, confirmation, H4 neuroglioma cells, luminescence (AID 1988); assay type: functional, cell-based
[19] = HepG2 cell cytotoxicity, dose response, cytotoxicity control for Shn3 inhibitor project, CellTiter-Glo, cherry-picked (AID 624134); assay type: functional, cell-based
[20] = Luminescence Cell-Based Dose Response HTS to Identify Inhibitors of 5'UTR Stem-Loop Driven Prion Protein mRNA Translation in H4 Neuroglioblastoma Cells. [Related pubchem assays: 1827 (Project Summary), 1813 (Primary HTS)]; assay type: functional

Chain of Beta Lactamase (Q932Y6 whole entry): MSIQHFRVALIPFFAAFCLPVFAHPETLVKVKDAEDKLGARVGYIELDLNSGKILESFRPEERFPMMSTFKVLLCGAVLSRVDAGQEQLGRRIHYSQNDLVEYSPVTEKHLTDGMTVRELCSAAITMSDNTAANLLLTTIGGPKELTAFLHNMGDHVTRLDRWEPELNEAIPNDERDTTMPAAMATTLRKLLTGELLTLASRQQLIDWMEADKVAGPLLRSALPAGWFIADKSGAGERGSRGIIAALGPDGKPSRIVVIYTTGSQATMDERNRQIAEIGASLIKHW
Chain of Latent membrane protein 1 (P03230 whole entry): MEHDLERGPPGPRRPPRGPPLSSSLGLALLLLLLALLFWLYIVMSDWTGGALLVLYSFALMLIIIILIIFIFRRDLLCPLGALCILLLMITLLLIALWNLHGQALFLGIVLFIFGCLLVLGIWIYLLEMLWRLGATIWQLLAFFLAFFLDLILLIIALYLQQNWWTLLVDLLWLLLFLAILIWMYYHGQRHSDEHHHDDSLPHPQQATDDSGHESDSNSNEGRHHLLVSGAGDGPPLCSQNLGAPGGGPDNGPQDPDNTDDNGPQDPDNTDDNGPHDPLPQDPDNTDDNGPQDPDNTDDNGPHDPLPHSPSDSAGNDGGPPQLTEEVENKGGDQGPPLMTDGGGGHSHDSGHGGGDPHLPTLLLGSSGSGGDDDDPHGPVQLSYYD

## O=C1c2cccc3c(N4CCCCC4)ccc(c23)C(=O)N1c1ccccc1O
CHO
  IC50: > 49.8 µM (inactive)
Beta Lactamase
  IC50: 7.63 µM (active)

## Fc1ccc(/C=C/c2noc(-c3c(F)cccc3F)n2)cc1
[1]
  IC50: > 99 µM (inactive)
Caspase-3 [2]
  IC50: 30.8 µM (active)
[3]
  IC50: 11 µM (active)
[4]
  IC50: 5.86 µM (active)
[5]
  IC50: 4.97 µM (active)
Caspase-3 [6]
  IC50: 34 µM (active)
[7]
  IC50: 4.72 µM (active)
[8]
  IC50: > 99 µM (inactive)

## CCOC(=O)c1cnc(-n2nc(C)cc2C)nc1NNc1cc(C)nc(-c2ccccc2)n1
[9]
  AC50: 3.31 µM (active)
INS1
  AC50: 2.14 µM (active)
[10]
  EC50: 0.584 µM (active)
[11]
  EC50: 0.344 µM (active)
[12]
  EC50: 0.355 µM (active)
Streptococcus
  EC50: 1.02 µM (active)
[13]
  AC50: 1.74 µM (active)
[14]
  EC50: 56.7 µM (active)
[15]
  AC50: 81.7 µM (active)
[16]
  AC50: 2.29 µM (active)
[17]
  CC50: 7.39 µM (active)
HEK293
  AC50: 3.4 µM (active)
[18]
  EC50: 6.73 µM (active)
[19]
  AC50: 60 µM (active)
[20]
  EC50: 2.8 µM (active)
